34 compounds from patent US20110269763A1, “CRTH2 receptor ligands for medicinal uses” (7TM Pharma A/S, priority 2004, published 2011) can be followed below.

One may read the pIC50 as the negative decadic logarithm of the IC50, by convention in mol/L.

pIC50: −log10 of the molar value. Some results are limits rather than exact numbers.

In assay [1] the target is T1, human CRTH2 (Homo sapiens, UniProt Q9Y5Y4, V204A).
T1 sequence (Q9Y5Y4 1-395 V204A): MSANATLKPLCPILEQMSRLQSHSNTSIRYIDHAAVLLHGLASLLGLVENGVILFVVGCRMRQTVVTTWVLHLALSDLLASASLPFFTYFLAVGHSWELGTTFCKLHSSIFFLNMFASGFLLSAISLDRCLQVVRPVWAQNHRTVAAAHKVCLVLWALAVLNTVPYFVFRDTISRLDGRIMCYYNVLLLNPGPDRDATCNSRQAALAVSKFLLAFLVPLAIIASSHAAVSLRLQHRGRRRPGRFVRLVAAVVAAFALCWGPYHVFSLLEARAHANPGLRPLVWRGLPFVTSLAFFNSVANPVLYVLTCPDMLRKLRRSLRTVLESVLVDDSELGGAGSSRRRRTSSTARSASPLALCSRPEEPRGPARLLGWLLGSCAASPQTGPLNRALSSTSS
In words: Receptor binding assay: [3H]PGD2 competition binding on whole COS-7 cells transiently transfected with CRTH2 (also stable HEK293 cells). Further details: expressed in transfected cells; host or cells: COS-7 (transient, calcium phosphate). In a few lines:
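Whole COS-7 cells transiently transfected with human CRTH2 (calcium phosphate), or stable HEK293 cells, competed against 0.1 nM [3H]PGD2 in HBSS/10 mM HEPES with 1% DMSO, 3 h at 4 °C. Nonspecific binding with 10 μM PGD2; scintillation counting, duplicates. IC50 from curve fitting.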

Assay [2] concerns the target T1, human CRTH2. In words: Functional antagonist BRET assay on HEK293 cells stably expressing human CRTH2-Rluc and GFP2-β-arr2. In kind it is cell-based. Further details: expressed in transfected cells. The note with it: read-out: Antag. IC50. In a few lines:
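Cells (2×10^6/mL in D-PBS with glucose) were preincubated 15 min with antagonist at 1% DMSO, then agonist and DeepBlueC were co-injected. Emission at 400 and 515 nm was read 5 s later, and the mBRET ratio (515/400 nm) was used to derive IC50 from concentration–response curves.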
For orientation: Bioluminescence resonance energy transfer reports proximity on the nanometre scale.

Where [3] appears, read: competition with 0.1 nM [3H]PGD2, whole cells, 3 h at 4° C.
[4] abbreviates: BRET, antagonist incubated 15 minutes prior to agonist.
Where [5] appears, read: receptor binding assay, Table 3.
Where [6] appears, read: functional antagonist assay, Table 3.

Consider `Cc1cc(Cl)ccc1-n1cc(C(=O)c2cc(Br)ccc2OC(C)C(=O)O)cn1` (centres unmarked) [D62, 2-{4-Bromo-2-[1-(4-chloro-2-methylphenyl)-1H-pyrazole-4-carbonyl]phenoxy}propionic acid], for which the negative-log IC50 (pIC50) at human CRTH2 [1] (setting [3]) and at human CRTH2 [2] (setting [4]) was > 6.30 each time.

In the case of `O=C(O)COc1ccc(Br)cc1-c1noc(-c2ccccc2Cl)n1` [D137, {4-Bromo-2-[5-(2-chlorophenyl)-[1,2,4]oxadiazol-3-yl]phenoxy}acetic acid], the pIC50 at human CRTH2 [1] (setting [3]) and on human CRTH2 [2] (setting [4]) was > 6.30 each time.

`O=C(O)COc1ccc(Br)cc1-c1coc(Cc2ccccc2)n1` [D88, [2-(2-Benzyloxazol-4-yl)-4-bromophenoxy]acetic acid]: the pIC50 at human CRTH2 [1] (setting [3]) and at human CRTH2 [2] (setting [4]) was > 6.30 each time.

On to `Cc1ccc(-n2cc(C(=O)c3cc(Br)ccc3OCC(=O)O)cn2)c(Br)c1` [D45, {4-Bromo-2-[1-(2-bromo-4-methylphenyl)-1H-pyrazole-4-carbonyl]phenoxy}acetic acid], for which the pIC50 at human CRTH2 [1] (setting [3]) and at human CRTH2 [2] (setting [4]) was > 6.30 each time.

`O=C(O)COc1ccc(Br)cc1CC1SC(=O)N(Cc2ccncc2)C1=O` (centres unmarked) [D145, 4-Bromo-2-(2,4-dioxo-3-pyridin-4-ylmethylthiazolidin-5-ylmethyl)phenoxyacetic acid]: the pIC50 at human CRTH2 [1] (setting [3]) and at human CRTH2 [2] (setting [4]) was > 6.30 throughout.

With `O=C(O)COc1ccc(F)cc1C(=O)c1cnn(-c2ccccc2)c1` [D3, 4-Fluoro-2-(1-phenyl-1H-pyrazole-4-carbonyl)phenoxyacetic acid], the pIC50 at human CRTH2 [1] (setting [3]) is > 6.30; on human CRTH2 [2] (setting [4]) it was 5.30 to 6.30.

In the case of `O=C(O)COc1ccc(Br)cc1-c1nc(Cc2ccc(Cl)cc2)no1` [D114, {4-Bromo-2-[3-(4-chloro-benzyl)-[1,2,4]oxadiazol-5-yl]-phenoxy}-acetic acid], the pIC50 on human CRTH2 [1] (setting [5]) and on human CRTH2 [2] (setting [6]) was > 6.30 throughout.

Regarding `O=C(O)COc1ccc(Br)cc1C(=O)c1cnn(-c2ccccc2Oc2ccccc2)c1` [D43, {4-Bromo-2-[1-(2-phenoxyphenyl)-1H-pyrazole-4-carbonyl]phenoxy}acetic acid], the negative logarithm of the IC50 (pIC50) on human CRTH2 [1] (setting [3]) and at human CRTH2 [2] (setting [4]) was > 6.30 in each case.

On to `CCOc1ccc(-c2nc(-c3cc(Br)ccc3OCC(=O)O)co2)cc1` [D87, {4-Bromo-2-[2-(4-ethoxyphenyl)oxazol-4-yl]phenoxy}acetic acid], for which the pIC50 on human CRTH2 [1] (setting [3]) is > 6.30; at human CRTH2 [2] (setting [4]), < 5.30.

In the case of `O=C(O)COc1ccc(Br)cc1C(=O)c1cnn(-c2c(Cl)cncc2Cl)c1` [D80, {4-Bromo-2-[1-(3,5-dichloropyridin-4-yl)-1H-pyrazole-4-carbonyl]phenoxy}acetic acid], the pIC50 at human CRTH2 [1] (setting [3]) and at human CRTH2 [2] (setting [4]) was > 6.30 each time.

With `Cc1cccc(C)c1-n1cc(C(=O)c2cc(Br)ccc2OCC(=O)O)cn1` [D71, {4-Bromo-2-[1-(2,6-dimethylphenyl)-1H-pyrazole-4-carbonyl]phenoxy}acetic acid], the pIC50 on human CRTH2 [1] (setting [3]) and on human CRTH2 [2] (setting [4]) was > 6.30 throughout.

On to `COc1ccc(-c2cnnc(NN=Cc3ccccc3OCC(=O)O)n2)cc1` [D153], for which the negative-log IC50 (pIC50) on human CRTH2 [1] (setting [3]) is 5.30 to 6.30; at human CRTH2 [2] (setting [4]) it was < 5.30.

With `O=C(O)COc1ccc(Br)cc1C=NNc1ccccn1` [D151], the results for the pIC50 at human CRTH2 [1] (setting [3]) and on human CRTH2 [2] (setting [4]) were > 6.30 and < 5.30, respectively.

`O=C(O)COc1ccc(Br)cc1C(=O)c1cnn(-c2ccccc2F)c1` [D22, 4-Bromo-2-[1-(2-fluorophenyl)-1H-pyrazole-4-carbonyl]phenoxyacetic acid]: the pIC50 on human CRTH2 [1] (setting [3]) and on human CRTH2 [2] (setting [4]) was > 6.30 throughout.

`O=C(O)COc1ccc(Br)cc1-c1nc(Cc2ccc(OC(F)(F)F)cc2)no1` [D113, {4-Bromo-2-[3-(4-trifluoromethoxy-benzyl)-[1,2,4]oxadiazol-5-yl]-phenoxy}-acetic acid]: the pIC50 at human CRTH2 [1] (setting [5]) and at human CRTH2 [2] (setting [6]) was > 6.30 in each case.

For `O=C(O)COc1ccc(Br)cc1-c1csc(-c2ccccc2)n1` [D93, [4-Bromo-2-(2-phenylthiazol-4-yl)phenoxy]acetic acid], the pIC50 on human CRTH2 [1] (setting [3]) and at human CRTH2 [2] (setting [4]) was > 6.30 in each case.

Regarding `COc1ccc(OCC(=O)O)c(C(=O)c2cnn(-c3ccccc3)c2)c1` [D36, 4-Methoxy-2-[1-phenyl-1H-pyrazole-4-carbonyl]phenoxyacetic acid], the negative-log IC50 (pIC50) at human CRTH2 [1] (setting [3]) was > 6.30; on human CRTH2 [2] (setting [4]), 5.30 to 6.30.

For the compound `CCc1cc(Br)ccc1-n1cc(C(=O)c2cc(Br)ccc2OCC(=O)O)cn1` [D42, {4-Bromo-2-[1-(4-bromo-2-ethylphenyl)-1H-pyrazole-4-carbonyl]phenoxy}acetic acid], the negative logarithm of the IC50 (pIC50) at human CRTH2 [1] (setting [3]) and at human CRTH2 [2] (setting [4]) was > 6.30 throughout.

On to `O=C(O)COc1ccc(Br)cc1-c1nc(-c2ccc(Oc3ccccc3)cc2)no1` [D111, {4-Bromo-2-[3-(4-phenoxy-phenyl)-[1,2,4]oxadiazol-5-yl]-phenoxy}-acetic acid], for which the pIC50 at human CRTH2 [1] (setting [5]) and on human CRTH2 [2] (setting [6]) was > 6.30 in each case.

Turning to `COc1ccc(-n2cc(C(=O)c3cc(Br)ccc3OCC(=O)O)cn2)cc1` [D7, 4-Bromo-2-[1-(4-methoxyphenyl)-1H-pyrazole-4-carbonyl]phenoxyacetic acid], the negative-log IC50 (pIC50) on human CRTH2 [1] (setting [3]) and at human CRTH2 [2] (setting [4]) was > 6.30 in each case.

In the case of `O=C(O)COc1ccc(Br)cc1-c1coc(-c2ccccc2)n1` [D83, [4-Bromo-2-(2-phenyloxazol-4-yl)phenoxy]acetic acid], the negative logarithm of the IC50 (pIC50) was > 6.30 at human CRTH2 [1] (setting [3]) and < 5.30 on human CRTH2 [2] (setting [4]).

Regarding `COc1cccc(Cc2noc(-c3cc(Br)ccc3OCC(=O)O)n2)c1` [D125, {4-Bromo-2-[3-(3-methoxybenzyl)-[1,2,4]oxadiazol-5-yl]phenoxy}acetic acid], the negative logarithm of the IC50 (pIC50) is > 6.30 on human CRTH2 [1] (setting [5]) and < 5.30 at human CRTH2 [2] (setting [6]).

As to `O=C(O)COc1ccc([N+](=O)[O-])cc1C(=O)c1cnn(-c2ccc(Cl)cc2)c1` [D19, 4-Nitro-2-[1-(4-chlorophenyl)-1H-pyrazole-4-carbonyl]phenoxyacetic acid], the negative logarithm of the IC50 (pIC50) on human CRTH2 [1] (setting [3]) and at human CRTH2 [2] (setting [4]) was > 6.30 in each case.

As to `O=C(O)COc1ccc(Br)cc1-c1coc(-c2ccc(Cl)cc2)n1` [D85, {4-Bromo-2-[2-(4-chlorophenyl)oxazol-4-yl]phenoxy}acetic acid], the values for the pIC50 on human CRTH2 [1] (setting [3]) and at human CRTH2 [2] (setting [4]) were > 6.30 and < 5.30, respectively.

With `O=C(O)COc1ccc(Br)cc1CN1CC(=O)N(CCc2ccccc2)C1=O` [D140, 4-Bromo-2-(2,4-dioxo-3-phenethylimidazolidin-1-ylmethyl)phenoxyacetic acid], the pIC50 on human CRTH2 [1] (setting [3]) is > 6.30; on human CRTH2 [2] (setting [4]), 5.30 to 6.30.

Turning to `O=C(O)COc1ccc(Br)cc1-c1coc(Cc2ccc(F)cc2Cl)n1` [D90, {4-Bromo-2-[2-(2-chloro-4-fluorobenzyl)oxazol-4-yl]phenoxy}acetic acid], the negative logarithm of the IC50 (pIC50) at human CRTH2 [1] (setting [3]) and at human CRTH2 [2] (setting [4]) was > 6.30 each time.

Take `O=C(O)COc1ccc(Br)cc1-c1nc(Cc2ccccc2C(F)(F)F)no1` [D127, {4-Bromo-2-[3-(2-trifluoromethylbenzyl)-[1,2,4]oxadiazol-5-yl]phenoxy}-acetic acid]: the pIC50 on human CRTH2 [1] (setting [5]) and at human CRTH2 [2] (setting [6]) was > 6.30 each time.

As for `COc1ccccc1-n1cc(C(=O)c2cc(Br)ccc2OC(C)C(=O)O)cn1` (centres unmarked) [D65, 2-{4-Bromo-2-[1-(2-methoxyphenyl)-1H-pyrazole-4-carbonyl]phenoxy}propionic acid], the pIC50 at human CRTH2 [1] (setting [3]) and at human CRTH2 [2] (setting [4]) was > 6.30 throughout.

Consider `O=C(O)COc1ccc(Br)cc1CC1SC(=O)N(Cc2cccc(Cl)c2)C1=O` (centres unmarked) [D144, 4-Bromo-2-[3-(3-chlorobenzyl)-2,4-dioxothiazolidin-5-ylmethyl]phenoxyacetic acid], for which the pIC50 on human CRTH2 [1] (setting [3]) and at human CRTH2 [2] (setting [4]) was > 6.30 throughout.

Take `CCc1ccc(OCC(=O)O)c(C(=O)c2cnn(-c3ccccc3Br)c2)c1` [D30, 4-Ethyl-2-[1-(2-bromophenyl)-1H-pyrazole-4-carbonyl]phenoxyacetic acid]: the pIC50 on human CRTH2 [1] (setting [3]) and at human CRTH2 [2] (setting [4]) was > 6.30 throughout.

Regarding `O=C(O)COc1ccc(Br)cc1C(=O)c1cnn(-c2ccc(Br)cc2Cl)c1` [D34, 4-Bromo-2-[1-(4-bromo-2-chlorophenyl)-1H-pyrazole-4-carbonyl]phenoxyacetic acid], the negative logarithm of the IC50 (pIC50) on human CRTH2 [1] (setting [3]) and at human CRTH2 [2] (setting [4]) was > 6.30 throughout.

`COc1ccccc1-c1noc(-c2cc(Br)ccc2OCC(=O)O)n1` [D107, {4-Bromo-2-[3-(2-methoxyphenyl)-[1,2,4]oxadiazol-5-yl]phenoxy}acetic acid]: the pIC50 at human CRTH2 [1] (setting [5]) and at human CRTH2 [2] (setting [6]) was > 6.30 throughout.

In the case of “{4-Bromo-2-[1-(4-bromo-2-chlorophenyl)-1H-pyrazole-4-carbonyl]phenoxy}acetic acid [D67]”, the pIC50 at human CRTH2 [1] (setting [3]) and at human CRTH2 [2] (setting [4]) was > 6.30 in each case.

For the compound `O=C(O)COc1ccc(Br)cc1C(=O)c1cnn(-c2cccc(C(F)(F)F)c2)c1` [D25, 4-Bromo-2-[1-(3-trifluoromethylphenyl)-1H-pyrazole-4-carbonyl]phenoxyacetic acid], the pIC50 on human CRTH2 [1] (setting [3]) and on human CRTH2 [2] (setting [4]) was > 6.30 in each case.
